Patent US9260415B2, “Heteroaryl pyridone and aza-pyridone compounds with electrophilic functionality” (Genentech, Inc., priority 2013, dated 2016)

What follows are molecules tested against BTK (Homo sapiens (Human), UniProt Q06187) (assay: BTK LC3K biochemical assay (LabChip 3000 mobility shift)).
Method: Formula I compounds were tested by biochemical Btk, Kinase assays (Example 901).
Alternatively, an in vitro BTK biochemical assay that quantifies BTK-catalyzed tyrosine phosphorylation of a synthetic peptide, as detected using a LabChip 3000® microfluidic mobility shift instrument (PerkinElmer; Waltham, Mass.) can be conducted. The substrate peptide, ProfilerPro® FL-Peptide 22 (Product No. 760366; PerkinElmer), has an amino-terminal fluorescent 5-carboxyfluorescein group (5-FAM) and a tyrosine residue that can be phosphorylated by BTK: 5-FAM-[…]-NH2. Purified recombinant human full-length catalytically active BTK protein was obtained from Carna Biosciences (Product No. 08-080; Kobe, Japan).
BTK assay mixtures contained 50 mM 4-(2-hydroxyethyl)-1-piperazineethanesulfonic acid buffer (pH 7.5), 10 mM magnesium chloride, 0.01% Triton X-100, 1 mM dithiothreitol, 1 μM FL-Peptide 22, 45 μM ATP, 1 nM BTK, and a titration of up to 10,000 nM test article in a final concentration of 0.5% (volume to volume [v/v]) DMSO. In the titration experiments, each of the test article concentrations (10 or 12 concentrations) was tested in duplicate. Blank reactions contained ATP, peptide, and DMSO, but no BTK or test article, whereas uninhibited control reactions contained ATP, peptide, BTK, and DMSO, but no test article.
Reactions were incubated for 30 minutes at room temperature (22° C.-23° C.) in a final volume of 20 μL per well in 384-well plates. Ten microliters of BTK plus peptide mixture were added to 10 μL of a mixture of ATP and test article (or vehicle) to initiate the reactions. Reactions were stopped by adding 10 μL of 0.25 M ethylenediaminetetraacetic acid (EDTA) at pH 8.0 to each well. In each reaction, the residual FL-Peptide 22 substrate (S) and the phospho-peptide product (P) generated were separated using the LabChip 3000 instrument. Electrophoretic separation of molecules of product from molecules of substrate was achieved using downstream and upstream voltages of −500 and −2250 V, respectively, at an operating pressure of −1 psi. The 5-FAM group present on both the substrate and product peptides was excited at 488 nm; the fluorescence at 530 nm was detected and the peak heights were reported.
Data Analysis: The extent (or percent) of conversion of substrate to product was calculated from the corresponding peak heights in the electropherogram using HTS Well Analyzer software, version 5.2 (PerkinElmer) and the following equation: conversion=[(P)÷(S+P)]×100 where S and P represent the peak heights of the substrate and product, respectively. After any baseline signal from blank wells containing no BTK was subtracted from the signal of all test wells, the % conversion data were converted to fractional activity as shown in Equation 2, where vi and vo are the % conversion in the presence and absence, respectively, of test article. The % conversion observed in the uninhibited control reaction wells containing BTK and DMSO vehicle, but no test article, was defined to have fractional activity=1 (in this case with no test article present, vi=vo), whereas blank wells with no BTK were defined as having fractional activity=0. Fractional activity was plotted against test article concentration and the data were fit using Genedata Screener software (Genedata; Basel, Switzerland) to the tight-binding apparent inhibition constant (Ki^app) Morrison equation [Williams, J. W. and Morrison, J. F. (1979) The kinetics of reversible tight-binding inhibition. Methods Enzymol 63:437-67]. The following equation was used to calculate fractional activity and Ki^app:
[formula] where [E]T and [I]T are the total concentrations of active enzyme (fixed value of 0.001 μM=1 nM) and test article (e.g., inhibitor; the varied parameter), respectively.

BTK, sequence (Q06187 whole entry): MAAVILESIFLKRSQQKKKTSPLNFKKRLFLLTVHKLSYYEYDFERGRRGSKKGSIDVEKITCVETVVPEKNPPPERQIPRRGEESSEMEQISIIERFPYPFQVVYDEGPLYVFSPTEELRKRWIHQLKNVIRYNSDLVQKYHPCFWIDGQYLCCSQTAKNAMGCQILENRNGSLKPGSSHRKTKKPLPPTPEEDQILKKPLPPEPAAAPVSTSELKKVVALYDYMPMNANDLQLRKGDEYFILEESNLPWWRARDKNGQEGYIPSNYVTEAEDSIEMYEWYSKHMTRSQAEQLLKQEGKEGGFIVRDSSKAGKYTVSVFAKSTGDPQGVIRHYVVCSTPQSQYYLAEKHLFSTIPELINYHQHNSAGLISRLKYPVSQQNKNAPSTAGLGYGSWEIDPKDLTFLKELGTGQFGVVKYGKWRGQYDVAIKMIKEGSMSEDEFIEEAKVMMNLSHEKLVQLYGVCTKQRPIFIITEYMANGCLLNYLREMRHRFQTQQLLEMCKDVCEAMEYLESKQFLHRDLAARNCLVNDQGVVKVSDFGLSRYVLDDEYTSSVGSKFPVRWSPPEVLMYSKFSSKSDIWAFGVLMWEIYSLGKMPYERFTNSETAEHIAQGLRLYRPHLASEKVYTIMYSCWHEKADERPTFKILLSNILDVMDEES

Row | Structure (SMILES) | Ki
1 | CCC(=O)NCCOc1cccc(Nc2cc(-c3ccnc(N4CCn5c(cc6c5CC(C)(C)C6)C4=O)c3CO)cn(C)c2=O)n1 [Compound 119, N-{2-[(6-{[5-(2-{4,4-dimethyl-9-oxo-1,10-diazatricyclo[6.4.0.0^2,6]dodeca-2(6),7-dien-10-yl}-3-(hydroxymethyl)pyridin-4-yl)-1-methyl-2-oxo-1,2-dihydropyridin-3-yl]amino}pyridin-2-yl)oxy]ethyl}propanamide] | 0.963 nM
2 | C=CC(=O)NCCOc1cccc(Nc2cc(-c3ccnc(N4CCn5c(cc6c5CC(C)(C)C6)C4=O)c3CO)cn(C)c2=O)n1 [Compound 101, N-{2-[(6-{[5-(2-{4,4-dimethyl-9-oxo-1,10-diazatricyclo[6.4.0.0^2,6]dodeca-2(6),7-dien-10-yl}-3-(hydroxymethyl)pyridin-4-yl)-1-methyl-2-oxo-1,2-dihydropyridin-3-yl]amino}pyridin-2-yl)oxy]ethyl}prop-2-enamide] | 0.792 nM
3 | C=CC(=O)N(C)CCOc1cccc(Nc2cc(-c3cc(F)cc(-n4ncc5c6c(sc5c4=O)CCCC6)c3CO)cn(C)c2=O)n1 [Compound 113, N-[2-[[6-[[5-[5-fluoro-2-(hydroxymethyl)-3-(4-oxo-6,7,8,9-tetrahydrobenzothiopheno[2,3-d]pyridazin-3-yl)phenyl]-1-methyl-2-oxo-3-pyridyl]amino]-2-pyridyl]oxy]ethyl]-N-methyl-prop-2-enamide] | 0.146 nM
4 | C=C(C#N)C(=O)NCCOc1cccc(Nc2cc(-c3cc(F)cc(-n4ncc5c6c(sc5c4=O)CCCC6)c3CO)cn(C)c2=O)n1 [Compound 117, 2-cyano-N-[2-[[6-[[5-[5-fluoro-2-(hydroxymethyl)-3-(4-oxo-6,7,8,9-tetrahydrobenzothiopheno[2,3-d]pyridazin-3-yl)phenyl]-1-methyl-2-oxo-3-pyridyl]amino]-2-pyridyl]oxy]ethyl]prop-2-enamide] | 0.576 nM
5 | C=CC(=O)NCCNc1cccc(Nc2cc(-c3cc(F)cc(-n4ncc5c6c(sc5c4=O)CCCC6)c3CO)cn(C)c2=O)n1 [Compound 105, N-[2-[[6-[[5-[5-fluoro-2-(hydroxymethyl)-3-(4-oxo-6,7,8,9-tetrahydrobenzothiopheno[2,3-d]pyridazin-3-yl)phenyl]-1-methyl-2-oxo-3-pyridyl]amino]-2-pyridyl]amino]ethyl]prop-2-enamide] | 0.248 nM
6 | Cn1cc(-c2ccnc(N3CCn4c(cc5c4CC(C)(C)C5)C3=O)c2CO)cc(Nc2ccnc(N3CCC(C(=O)NCC#N)C3)n2)c1=O (stereo not shown) [Compound 102, N-(cyanomethyl)-1-(4-{[5-(2-{4,4-dimethyl-9-oxo-1,10-diazatricyclo[6.4.0.0^2,6]dodeca-2(6),7-dien-10-yl}-3-(hydroxymethyl)pyridin-4-yl)-1-methyl-2-oxo-1,2-dihydropyridin-3-yl]amino}pyrimidin-2-yl)pyrrolidine-3-carboxamide] | 0.864 nM
7 | C=CC(=O)N[C@@H](C)COc1cccc(Nc2cc(-c3cc(F)cc(-n4ncc5c6c(sc5c4=O)CCCC6)c3CO)cn(C)c2=O)n1 [Compound 108, N-[(1S)-2-[[6-[[5-[5-fluoro-2-(hydroxymethyl)-3-(4-oxo-6,7,8,9-tetrahydrobenzothiopheno[2,3-d]pyridazin-3-yl)phenyl]-1-methyl-2-oxo-3-pyridyl]amino]-2-pyridyl]oxy]-1-methyl-ethyl]prop-2-enamide] | 2.57 nM
8 | C=CC(=O)N[C@@H](C)COc1cccc(Nc2cc(-c3ccnc(N4CCn5c(cc6c5CC(C)(C)C6)C4=O)c3CO)cn(C)c2=O)n1 [Compound 107, N-[(1S)-2-[[6-[[5-[2-(7,7-dimethyl-4-oxo-1,2,6,8-tetrahydrocyclopenta[3,4]pyrrolo[3,5-b]pyrazin-3-yl)-3-(hydroxymethyl)-4-pyridyl]-1-methyl-2-oxo-3-pyridyl]amino]-2-pyridyl]oxy]-1-methyl-ethyl]prop-2-enamide] | 0.612 nM
9 | CC#CC(=O)NCCOc1cccc(Nc2cc(-c3cc(F)cc(-n4ncc5c6c(sc5c4=O)CCCC6)c3CO)cn(C)c2=O)n1 [Compound 106, N-[2-[[6-[[5-[5-fluoro-2-(hydroxymethyl)-3-(4-oxo-6,7,8,9-tetrahydrobenzothiopheno[2,3-d]pyridazin-3-yl)phenyl]-1-methyl-2-oxo-3-pyridyl]amino]-2-pyridyl]oxy]ethyl]but-2-ynamide] | 0.306 nM
10 | C=CC(=O)N[C@H]1CCCN(c2cccc(Nc3cc(-c4cc(F)cc(-n5ncc6c7c(sc6c5=O)CCCC7)c4CO)cn(C)c3=O)n2)C1 [Compound 115, N-[(3S)-1-[6-[[5-[5-fluoro-2-(hydroxymethyl)-3-(4-oxo-6,7,8,9-tetrahydrobenzothiopheno[2,3-d]pyridazin-3-yl)phenyl]-1-methyl-2-oxo-3-pyridyl]amino]-2-pyridyl]-3-piperidyl]prop-2-enamide] | 2.16 nM
11 | C=CC(=O)NCCOc1cccc(Nc2cc(-c3ccnc(-n4ncc5cc(C(C)(C)C)cc(F)c5c4=O)c3CO)cn(C)c2=O)n1 [Compound 104, N-[2-[[6-[[5-[2-(6-tert-butyl-8-fluoro-1-oxo-phthalazin-2-yl)-3-(hydroxymethyl)-4-pyridyl]-1-methyl-2-oxo-3-pyridyl]amino]-2-pyridyl]oxy]ethyl]prop-2-enamide] | 0.915 nM
12 | C=CC(=O)NCCN(C)c1cccc(Nc2cc(-c3cc(F)cc(-n4ncc5c6c(sc5c4=O)CCCC6)c3CO)cn(C)c2=O)n1 [Compound 111, N-[2-[[6-[[5-[5-fluoro-2-(hydroxymethyl)-3-(4-oxo-6,7,8,9-tetrahydrobenzothiopheno[2,3-d]pyridazin-3-yl)phenyl]-1-methyl-2-oxo-3-pyridyl]amino]-2-pyridyl]-methyl-amino]ethyl]prop-2-enamide] | 0.494 nM
13 | C=CC(=O)N(C)CCOc1cccc(Nc2cc(-c3ccnc(N4CCn5c(cc6c5CC(C)(C)C6)C4=O)c3CO)cn(C)c2=O)n1 [Compound 112, N-[2-[[6-[[5-[2-(7,7-dimethyl-4-oxo-1,2,6,8-tetrahydrocyclopenta[3,4]pyrrolo[3,5-b]pyrazin-3-yl)-3-(hydroxymethyl)-4-pyridyl]-1-methyl-2-oxo-3-pyridyl]amino]-2-pyridyl]oxy]ethyl]-N-methyl-prop-2-enamide] | 1.75 nM
